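Compound exposure: 48 hours, 5 concentrations, 96-well plates. The concentration for 50% growth inhibition is given as GI50.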 Active and inactive are the calls of the source. Rule as the data show it: active = GI50 up to about 1.1 µM and inactive = higher.
Legend:
Test in all cases: NCI anticancer screen, dose series, 48 h
[1] = test system: UACC-257
[2] = test system: HCT-15
[3] = test system: ACHN
[4] = test system: CCRF-CEM
[5] = test system: SR
[6] = test system: HCT-116
[7] = test system: COLO 205
[8] = test system: Malme-3M
[9] = test system: SK-OV-3
[10] = test system: OVCAR-8
[11] = test system: M14
[12] = test system: K562
[13] = test system: SK-MEL-28
[14] = test system: LOX IMVI
[15] = test system: EKVX
[16] = test system: IGROV-1
[17] = test system: RXF 393

| SMILES | GI50 [1] | GI50 [2] | GI50 [3] | GI50 [4] | GI50 [5] | GI50 [6] | GI50 [7] | GI50 [8] | GI50 [9] | GI50 [10] | GI50 [11] | GI50 [12] | GI50 [13] | GI50 [14] | GI50 [15] | GI50 [16] | GI50 [17] |
| --- | --- | --- | --- | --- | --- | --- | --- | --- | --- | --- | --- | --- | --- | --- | --- | --- | --- |
| C[Si](C)(C)/C=C\CCCN1C(=O)CCC1=O | > 100 µM (inactive) | > 100 µM | > 100 µM (inactive) | 64.7 µM (inactive) | > 100 µM (inactive) | > 100 µM (inactive) | > 100 µM (inactive) | > 100 µM (inactive) | > 100 µM (inactive) | > 100 µM (inactive) | > 100 µM (inactive) | 60 µM (inactive) | > 100 µM (inactive) | > 100 µM (inactive) | > 100 µM (inactive) | > 100 µM (inactive) |  |
| CCCCNc1nc(C#N)c(N)s1 | > 100 µM (inactive) | > 100 µM | > 100 µM (inactive) |  | > 100 µM (inactive) | > 100 µM (inactive) | > 100 µM (inactive) | > 100 µM (inactive) | > 100 µM (inactive) | > 100 µM (inactive) | > 100 µM (inactive) | > 100 µM (inactive) | > 100 µM (inactive) | > 100 µM (inactive) |  | > 100 µM (inactive) |  |
| CCN(CC)/[N+]([O-])=N/O | > 100 µM (inactive) | > 100 µM | > 100 µM (inactive) | > 100 µM (inactive) | > 100 µM (inactive) | > 100 µM (inactive) |  |  | > 100 µM (inactive) | > 100 µM (inactive) | > 100 µM (inactive) | > 100 µM (inactive) | > 100 µM (inactive) | > 100 µM (inactive) | > 100 µM (inactive) | > 100 µM (inactive) | > 100 µM (inactive) |
| C=C1CC(CC)(CCN2C(=O)c3ccccc3C2=O)OC1=O (stereo unspecified) | 13.8 µM (inactive) | 13.9 µM | 14.9 µM (inactive) | 7.71 µM (inactive) | 27.4 µM (inactive) | 12.6 µM (inactive) | 16.7 µM (inactive) | 11.8 µM (inactive) |  | 16.4 µM (inactive) | 10.9 µM (inactive) | 20.8 µM (inactive) |  | 14.2 µM (inactive) | 17 µM (inactive) | 35.8 µM (inactive) | 15.5 µM (inactive) |
| CCOC(=O)/C(C#N)=C\Sc1ccccc1 | 24.7 µM (inactive) |  | 17.1 µM (inactive) | 7.83 µM (inactive) | 4.71 µM (inactive) | 16.8 µM (inactive) | 20.1 µM (inactive) |  | 36.6 µM (inactive) | 13.7 µM (inactive) | 15.9 µM (inactive) | 18.3 µM (inactive) | 14.7 µM (inactive) | 7.46 µM (inactive) | 27.2 µM (inactive) | 10.2 µM (inactive) | 16.8 µM (inactive) |
| CC(=O)NS(=O)(=O)c1ccc(NC(=O)COC(=O)c2cccc3c(=O)c4ccccc4[nH]c23)cc1 | > 100 µM (inactive) | > 100 µM | > 100 µM (inactive) | > 100 µM (inactive) |  | > 100 µM (inactive) | > 100 µM (inactive) | > 100 µM (inactive) | > 100 µM (inactive) | > 100 µM (inactive) | > 100 µM (inactive) | > 100 µM (inactive) | > 100 µM (inactive) | > 100 µM (inactive) | > 100 µM (inactive) | > 100 µM (inactive) | > 100 µM (inactive) |
| C1CC[N+]23CCCC[N+]2(C1)CCCC3 (stereo unspecified) | > 100 µM (inactive) | > 100 µM | > 100 µM (inactive) | > 100 µM (inactive) | > 100 µM (inactive) | > 100 µM (inactive) | > 100 µM (inactive) | > 100 µM (inactive) | > 100 µM (inactive) | > 100 µM (inactive) | > 100 µM (inactive) | > 100 µM (inactive) | > 100 µM (inactive) |  | > 100 µM (inactive) | > 100 µM (inactive) |  |
